# Measurements from patent publication US20220372171A1, “ANTIBODY DIRECTED AGAINST TENOFOVIR AND DERIVATIVES THEREOF” (priority 2019, published 2022).
# Columns and labels:
# [1] = Plasma TFV concentration by LC-MS/MS, Partners PrEP Study cohort; assay type: in vivo, human; conditions: Partners PrEP cohort on TDF or TDF/FTC; IQR=1.6-103.0 ng/mL
# Procedure: (§1) It was hypothesized that TFV concentrations in urine, measured via an immunoassay, would correlate to those in plasma, the gold standard for short-term PrEP adherence in clinical trials, and associated with protection from HIV. To test this hypothesis, TFV levels were measured in stored urine samples collected from a randomly sampled cohort of HIV-negative men and women from the active PrEP arms in the Partners PrEP Study using enzyme-linked immunosorbent assay (ELISA) (lower limit of quantification [LLOQ] of 1000 ng/mL). Date-matched plasma TFV concentrations were measured using liquid chromatography-tandem mass spectrometry (LC-MS/MS) with an LLOQ of 0.31 ng/mL. Using the same cohort and a purposive sample of all HIV seroconverters on PrEP, a case-cohort analysis was conducted to assess the association between recent urine TFV level ≥1500 ng/mL, a threshold previously shown to accurately predict recent PrEP dosing, and protection from HIV. Weighted Cox proportional hazard models were used and adjusted for age, sex, and sexual behavior.
# HIV [2] = conditions: daily doses; subjects at high risk through sexual transmission and drug use; cited from earlier work
# HIV [3] = assay: Urine TFV levels by immunoassay and HIV seroconversion (iPrEx-OLE); assay type: in vivo
# Procedure: PrEP was provided to 1,085 men who have sex with men (MSM) and 140 transwomen (Grant et al., Lancet Infect Dis, 14: 820-829 (2014)). Urine was collected every 12 weeks and dried blood spots (DBS) were prepared 4 and 8 weeks after PrEP initiation, and then every 12 weeks. DBS assays for TFV-diphosphate (TFV-DP) and FTC-triphosphate (FTC-TP) were analyzed at all visits for participants who seroconverted in the iPrEx open-label extension (iPrEx-OLE) study and in a random subset of those who remained HIV-negative (Grant et al., supra). Hair samples for TFV and FTC were collected every 12 weeks for all who provided opt-in consent and analyzed among seroconverters and a random subset of those who remained HIV-negative (Gandhi et al., Lancet HIV, 3: e521-e528 (2016)). Participants who qualified for the correlation analysis required sample availability from all three biomatrices (urine, DBS, hair) at one or more visits over the duration of iPrEx-OLE (median 72 weeks). Additional urine samples from seroconverters (n=10) were included in the specific analysis looking at the association between urine TFV levels and seroconversion. All individuals in the study provided informed consent, including for sample storage and further testing, and the institutional review board from each study site approved the study.
# The upper limit of quantification for the immunoassay was 50,000 ng/mL. Using previously described and validated LC-MS/MS-based methods, TFV-DP and FTC-TP concentration were measured in DBS (Zheng et al., J Pharm Biomed Anal, 122: 16-20 (2016)), and FTC and TFV concentrations were measured in hair (Liu et al., PLoS One, 9: e83736 (2014)).
# For the seroconversion analysis, urine TFV concentrations via the immunoassay were compared using Kruskal-Wallis' test among individuals at the seroconversion visit; prior to the seroconversion visit; and those who remained HIV-negative. Receiver operating curves (ROC) were analyzed to identify two urine TFV cut-points and compared with the outcome of future HIV seroconversion. […] The sensitivity and specificity of the urine assay at an undetectable urine TFV level (<1,000 ng/mL) was compared with two levels of inadequate adherence defined by TFV-DP concentrations in DBS: the limit of quantification (<3.5 fmol/punch) and very low adherence (<350 fmol/punch, estimated average weekly adherence of <2 tablets/week) (Grant et al., Lancet Infect Dis, 14: 820-829 (2014)); and Anderson et al., Antimicrob Agents Chemother, 62: e01710-e01717 (2018)). The lower limit of detection for the urine assay (1,000 ng/mL) was selected as the optimal single cut-off based on analysis of ROC curves and prior data examining LC-MS/MS-based methods to quantify TFV levels in urine (Lalley-Chareczko et al., J Acquir Immune Defic Syndr, 79: 173-178 (2018)).
# [4] = Urine TFV concentration by ELISA, Partners PrEP Study cohort; assay type: in vivo, human; conditions: Partners PrEP cohort on TDF or TDF/FTC; IQR=500-90,000 ng/mL
# Procedure: as §1
# HIV [5] = assay: Nested case-control analysis: TFV level and protection from HIV acquisition (Partners PrEP Study); assay type: in vivo
# Procedure: as §1
# To assess the association between urine TFV concentrations ≥1,500 ng/mL and protection from HIV acquisition, a nested case-control analysis was conducted. Case samples collected on the date of the first evidence of HIV infection (i.e., first positive test for HIV-1 RNA) were matched with control samples collected at the same study visit month. […]
smiles,measurement,setting,value
"C[C@H](Cn1cnc2c(N)ncnc21)OCP(=O)(O)O [TFV, tenofovir]",median TFV concentration in plasma via LC-MS/MS,[1],65.4 ng/mL
same,reduced incidence of HIV,HIV [2],48.9%
same,urinary TFV level at seroconversion,"HIV [3]; at seroconversion (n=9), P<0.001, undetectable = <1,000 ng/mL",undetectable
same,association of decreasing strata of urine TFV levels with HIV seroconversion,"HIV [3]; samples prior to seroconversion visit, P=0.03",associated with future HIV seroconversion
same,median urinary TFV level,"HIV [3]; those who eventually seroconverted (n=11), interquartile range 1,000-12,500","5,500 ng/mL"
same,median urinary TFV level,"HIV [3]; those who remained HIV negative (n=105), interquartile range 1,000-45,000","15,000 ng/mL"
same,median TFV concentration in urine via ELISA,[4],"37,500 ng/mL"
same,reduction in HIV risk associated with plasma TFV >40 ng/mL,"HIV [5]; plasma TFV >40 ng/mL by LC-MS/MS, 95% CI=54-96%",87%
same,% HIV risk reduction (95% CI),"HIV [5]; urine TFV ≥1500 ng/mL by immunoassay, unadjusted, TDF/FTC or TDF-only PrEP",73% (36 to 89%)
